A short description of data set [1]: Half-life and duration of functional activity. Type of data set: in vivo.
In data set [2] the target is T1, D4 receptor (Rattus norvegicus, UniProt P30729).
T1 sequence (P30729 1-387): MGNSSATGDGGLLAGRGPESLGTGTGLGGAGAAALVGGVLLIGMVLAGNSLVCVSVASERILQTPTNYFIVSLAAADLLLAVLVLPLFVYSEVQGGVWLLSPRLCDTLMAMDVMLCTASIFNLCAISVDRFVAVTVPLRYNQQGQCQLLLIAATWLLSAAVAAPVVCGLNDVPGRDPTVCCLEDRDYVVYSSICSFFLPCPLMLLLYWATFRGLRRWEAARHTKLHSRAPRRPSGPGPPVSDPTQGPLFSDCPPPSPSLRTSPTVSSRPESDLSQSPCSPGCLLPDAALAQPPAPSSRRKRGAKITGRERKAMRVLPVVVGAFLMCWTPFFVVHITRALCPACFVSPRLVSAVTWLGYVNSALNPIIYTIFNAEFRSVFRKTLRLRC
Description: Binding, cloned D4 receptor in CHO cells. Details: expressed in transfected cells; host or cells: CHO cells. Particulars: read-out: Cloned Receptors D4 CHO (rat).

Data set [3] concerns the target T1, D4 receptor. Briefly: Inhibition of forskolin-stimulated adenylate cyclase through D4 receptors in CHO cells. The format is cell-based.
The next data set addresses D2L receptors (Homo sapiens, UniProt P14416). Briefly: Inhibition of forskolin-stimulated adenylate cyclase through D2L receptors in CHO cells. Type of data set: cell-based. Particulars: compared with quinpirole.
For data set [4], the system named is adenylate cyclase in rat brain striatum. Briefly: Activation of adenylate cyclase in rat brain striatum. Type of data set: biochemical. The settings on record: compared with dopamine.
Another data set concerns the target dopamine D1 receptor (Homo sapiens, UniProt P21728). Description: D1 activity of hexahydrobenzo[a]phenanthridines, structure-activity statements. The settings on record: relative to dihydrexidine.
The subject of another data set is monkeys. Particulars: aged and reserpine-treated monkeys; cited from earlier work.
The target in a further data set is D2 receptor (Homo sapiens, UniProt P14416). Description: D2 potency of substituted hexahydrobenzo[a]phenanthridines, structure-activity statement. The settings on record: relative to dihydrexidine.
Another data set has as its target T2, D1 receptors (Rattus norvegicus, UniProt P18901).
T2 construct: utilizing rat brain striatal homogenates having D1 and D2 receptors; from tissue; host or cells: rat brain striatum homogenate
Briefly: Affinity for D1 receptors in rat brain striatal homogenates labeled with 3H-SCH 23390. The format is binding. The settings on record: for D1:D2 Selectivity: ratio of D2 to D1 affinity, rat striatal homogenates.

The next data set has as its target D1 receptor (Homo sapiens, UniProt P21728). Description: Affinity and selectivity for the D1 receptor stated in the description, no method given. Type of data set: binding. Particulars: exemplary compounds, b98.
Data set [5] has as its system rats with scopolamine-induced deficits. Description: Passive avoidance in rats, scopolamine-induced amnesia. Type of data set: in vivo, rat. The settings on record: 3.0 mg/kg ip. How it is done:
The protocol summarized below is one of many variants of the passive avoidance procedure using scopolamine-induced amnesia (for review see Rush, Behav Neural Biol 50:255-274, 1988). This procedure is commonly used to identify drugs that may be useful in treating cognitive deficits, particularly those observed in AD. The effects of the D
Testing was conducted in standard 2-compartment rectangular passive avoidance chambers (San Diego Instruments, San Diego, Calif.) with black plexiglas sides and grid floors. The light compartment of the chambers were illuminated by a 20 W lamp located in this compartment; the dark side of the chambers will be shielded from light, except for light penetrating the opening connecting the two compartments of each chamber.
On training day, groups of 8 rats were injected with scopolamine (3.0 mg/kg, ip) or vehicle (1.0 ml/kg) 30 min prior to training. Scopolamine served as the dementing agent in this experiment. Ten min prior to training, each group of rats received a second injection of vehicle or a dose of DHX. At the end of the pretreatment interval, each rat was placed individually in the light compartment facing away from the opening between compartments. The latency for each rat to travel from the light to the dark compartment was measured up to a maximum of 300 sec; any animal not entering the dark compartment within 300 sec was discarded from the test group. Once the animal entered the dark compartment completely, a 1.0 milliampere, 3.0 sec scrambled shock was delivered to the entire grid floor. The animal was allowed to remain in the dark compartment during this 3.0 sec period or to escape to the light compartment. Each rat was then returned immediately to its home cage.
Twenty-four hr after training, each rat was tested in the same apparatus for retention of the task (to remain passively in the light compartment). […] The latency for animals to enter the dark compartment on test day (step-through latency) was recorded up to a maximum of 600 sec. Each animal was used only once in a single experiment.
A one-way analysis of variance (ANOVA) and Newman-Keuls post-hoc comparisons were used to identify significant deficits in passive avoidance responding produced by scopolamine and their reversal by DHX; a p value of less than 0.05 was used as the level of significance.

The structures appear in SMILES notation. Structures can show the parent of a compound that is named as a salt. Where two headings read alike, the source gives them in different places.

T2 sequence (P18901 whole entry): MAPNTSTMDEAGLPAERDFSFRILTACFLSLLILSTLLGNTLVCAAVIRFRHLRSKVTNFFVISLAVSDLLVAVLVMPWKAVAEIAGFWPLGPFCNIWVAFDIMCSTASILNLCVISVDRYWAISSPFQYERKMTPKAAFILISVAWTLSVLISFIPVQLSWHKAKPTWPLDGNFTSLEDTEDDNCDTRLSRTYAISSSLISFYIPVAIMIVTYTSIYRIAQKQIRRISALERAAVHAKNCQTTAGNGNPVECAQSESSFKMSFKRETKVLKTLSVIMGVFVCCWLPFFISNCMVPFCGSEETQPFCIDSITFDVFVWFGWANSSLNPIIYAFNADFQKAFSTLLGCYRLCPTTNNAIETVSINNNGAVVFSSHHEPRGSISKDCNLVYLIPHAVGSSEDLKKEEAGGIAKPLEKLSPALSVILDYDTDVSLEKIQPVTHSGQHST
dopamine D1 receptor, sequence (P21728 whole entry): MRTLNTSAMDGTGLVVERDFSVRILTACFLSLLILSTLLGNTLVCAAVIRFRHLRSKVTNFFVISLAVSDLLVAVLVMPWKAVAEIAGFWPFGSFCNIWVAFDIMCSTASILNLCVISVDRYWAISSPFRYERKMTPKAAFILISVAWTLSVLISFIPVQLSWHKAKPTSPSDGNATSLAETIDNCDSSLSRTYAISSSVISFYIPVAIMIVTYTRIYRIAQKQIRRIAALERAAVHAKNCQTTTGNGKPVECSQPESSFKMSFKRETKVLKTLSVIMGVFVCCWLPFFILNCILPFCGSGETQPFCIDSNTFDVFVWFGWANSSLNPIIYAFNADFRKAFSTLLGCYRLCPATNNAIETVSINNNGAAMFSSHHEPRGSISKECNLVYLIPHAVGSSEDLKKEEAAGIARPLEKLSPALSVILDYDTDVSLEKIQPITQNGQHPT
D2L receptors, sequence (P14416 whole entry): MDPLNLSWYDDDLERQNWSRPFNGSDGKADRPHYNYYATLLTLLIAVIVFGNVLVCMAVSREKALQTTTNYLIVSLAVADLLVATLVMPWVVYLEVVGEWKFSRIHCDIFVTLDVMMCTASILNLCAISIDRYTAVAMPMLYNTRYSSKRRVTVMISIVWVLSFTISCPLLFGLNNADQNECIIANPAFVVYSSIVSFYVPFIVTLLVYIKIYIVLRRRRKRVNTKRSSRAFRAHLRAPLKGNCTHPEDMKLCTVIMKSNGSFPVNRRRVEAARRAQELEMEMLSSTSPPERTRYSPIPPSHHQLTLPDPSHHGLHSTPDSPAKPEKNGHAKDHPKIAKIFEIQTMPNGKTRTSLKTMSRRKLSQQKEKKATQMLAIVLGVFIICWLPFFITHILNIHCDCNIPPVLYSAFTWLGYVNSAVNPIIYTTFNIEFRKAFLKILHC
D2 receptor, sequence (P14416 whole entry): as above
D1 receptor, sequence (P21728 whole entry): as the sequence (P21728 whole entry) above

As for `C=CCN1Cc2cccc3c2C(C1)c1ccc(O)c(O)c1O3` (centres unmarked) [Compound 16b, N-allyl-8,9-dihydroxy-1,2,3,11b-tetrahydrochromeno[4,3,2-de]isoquinoline], the melting point was 251 to 253 °C (dec.).

Regarding `CCCN1Cc2cccc3c2C(C1)c1ccc(O)c(O)c1O3` (centres unmarked) [Compound 16c, N-propyl-8,9-dihydroxy-1,2,3,11b-tetrahydrochromeno[4,3,2-de]isoquinoline], the melting point was 259 to 264 °C (dec.).

As to `Oc1ccc2c(c1O)Cc1cccc3c1C2CNC3` (centres unmarked) [Compound 29, 8,9-Dihydroxy-2,3,7,11b-tetrahydro-1H-napth[1,2,3-de]isoquinoline], the “Duration of functional activity” value in [1] (in vivo) fell in the range of 7 to 10 h. The half-life in data set [1] (serum, read-out: Serum half-life (converted)) was 3 h. The Ki at D4 receptor [2] worked out at 60 nM. For the same molecule, at D4 receptor [3], the “Agonist activity for inhibition of cAMP synthesis at D4 receptors” value is listed as “full agonist”. In addition, the EC50 at D4 receptor [3] (inhibition of forskolin-stimulated AC, mean ± SEM, at least three experiments, read-out: EC50 (nM) ± SEM, D4) turned out to be 60 ± 18 nM. In addition, the “Agonist activity for inhibition of cAMP synthesis at D2L receptors” value at D2L receptors was “full agonist”. In [4], the “Effectiveness in activating adenylate cyclase” value is on record as “as effective as dopamine”. Further, in [4] (receptor reserve reduced), the “Effectiveness in activating adenylate cyclase when receptor reserve is reduced” value is on record as “as effective as dopamine”.

Regarding `Cc1ccc2c(c1)[C@H]1c3cc(O)c(O)cc3CC[C@@H]1NC2.Cl` (relative stereo) [Compound 6b, Trans-2-methyl-10,11-dihydroxy-5,6,6a,7,8,12b-hexahydrobenzo [a]phenanthridine hydrochloride], the melting point is 190 °C (dec.). Besides, the “D1 potency and efficacy” value on dopamine D1 receptor is “comparable to dihydrexidine”.

Regarding `Oc1cc2c(cc1O)C(c1ccccc1)CNCC2` (centres unmarked) [SKF 38393, reference compound], the Spatial working memory entry with monkeys is on record as “improved spatial working memory”.

Consider `Cc1ccc2c(c1)CN[C@H]1CCc3cc(O)c(O)cc3[C@H]21.Cl` (relative stereo) [Compound 6c, Trans-3-methyl-10,11-dihydroxy-5,6,6a,7,8,12b-hexahydrobenzo[a]phenanthridine hydrochloride], for which the melting point was 190 °C (dec.). Besides, on D2 receptor, the D2 potency result is “greater D2 potency”. The “D1 potency and efficacy” value at dopamine D1 receptor is listed as “comparable to dihydrexidine”. For the same molecule, at D1 receptors, the Ki came out at 7 nM and the “D1:D2 Selectivity” value stood at 6.

Regarding `Br.Oc1ccc2c(c1O)Oc1cccc3c1C2CNC3` (centres unmarked) [Compound 16a, 8,9-dihydroxy-1,2,3,11b-tetrahydrochromeno[4,3,2-de]isoquinoline hydrobromide], the melting point is 298 to 302 °C (dec.). Further, at D1 receptor, the “D1:D2 selective” value is listed as “equally high affinity for both receptor subtypes”.

Consider `NCCc1ccc(O)c(O)c1` [dopamine], for which, on D4 receptor [3] (read-out: EC50 (nM) ± SEM, D4, inhibition of forskolin-stimulated AC, mean ± SEM, at least three experiments), the EC50 was 1750 ± 682 nM.

Take `Oc1ccc2c(c1O)Cc1cccc3c1C2CNC3` (centres unmarked) (as salt: hydrobromid) [Compound 29, 8,9-Dihydroxy-2,3,7,11b-tetrahydro-1H-napth[1,2,3-de]isoquinoline]: the melting point was 258 °C (dec.).

As to `Cl.Oc1cc2c(cc1O)[C@@H]1c3cc(Cc4ccccc4)ccc3CN[C@H]1CC2` (relative stereo) [Compound 6e, Trans-2-benzyl-10,11-dihydroxy-5,6,6a,7,8,12b-hexahydrobenzo[a]phenanthridine hydrochloride], the Ki at D1 receptors (rat brain striatal homogenates, 3H-SCH 23390, read-out: D1 Affinity) was found to be 290 nM. Moreover, on D1 receptors, the “D1:D2 Selectivity” value turned out to be 0.6.

With `Cc1cccc2c1CN[C@H]1CCc3cc(O)c(O)cc3[C@H]21.Cl` (relative stereo), the melting point is 195 °C (dec.).

Regarding `CN1[C@@H]2C[C@@H](OC(=O)[C@H](CO)c3ccccc3)C[C@H]1[C@@H]1O[C@@H]12` [Scopolamine, reference compound], in [5], the “Acquisition of the passive avoidance task” value is “severe deficit”.

(Values after US20070155720A1, “Co-administration of dopamine-receptor binding compounds” (DarPharma, Inc., priority 2003, published 2007).)
